Experimental data: the supplement of paper PMC6718421

Test system: Caenorhabditis elegans
Assay: animals per well after 6 days (50 L1 seeded); higher = more viable animals (less toxic)
Description: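 About 50 synchronized L1s per well were grown in liquid NGM with E. coli HB101 and twofold serial dilutions (0.12-120 uM) of crystal- or sphere-forming wactives for 6 days at 20 C; animals per well were counted, and overgrown wells (>50 animals) were scored as 100. Values are averages of replicate wells for wild type and sms-5(ok2498).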

CCCc1nc(-c2ccc(-c3ccc(F)cc3)cc2)no1 [wact-390]
animals per well
Conditions	genotype: sms-5(ok2498)	genotype: wild type N2
0.1171875 µM	> 100	> 100
0.234375 µM	> 100	> 100
0.46875 µM	> 100	> 100
0.9375 µM	> 100	> 100
1.875 µM	> 100	56.2
3.75 µM	> 100	4.83
7.5 µM	> 100	3.33
15 µM	> 100	2.83
30 µM	> 100	2.33
60 µM	> 100	0.333
120 µM	92.7	0.667
